Several values for one entry are separate records, joined by “and”; a condition that tells them apart may be missing. Equal entries are not always repeated.
Assays:
Format in all cases: functional, Homo sapiens
Set-up in all cases: dose or concentration left out as unconfirmed
[1] = test system: Colon cancer organoid; assay: (§1) Image-based profiling of donated chemical probes and chemogenomic kinase set in O09 CRC organoid. Image analysis is performed on the sum area metric, and the data were normalized to the DMSO control. After imaging the organoid viability is measured using the OneGloEX Luciferase Assay System. The normalized viability data and sum area are reported.
[2] = test system: Colon cancer organoid; assay: as §1, with “O21” for “O09”
[3] = test system: Colon cancer organoid; assay: as §1, with “O06” for “O09”

`COc1cc2c(NC3CCN(C(C)C)CC3)nc(N3CCC(F)(F)CC3)nc2cc1OCCCN1CCCC1` was tested, and the “Cell Viability” value ([1]; Replication number 1) was 87.3897% and 128.439%, the “Cell Viability” value ([1]; Replication number 2) was 117.725% and 126.861% and the “Cell Viability” value ([2]; Replication number 1) was 89.3609% and 142.848%. For the same compound, the “Cell Viability” value ([2]; Replication number 2) was 55.1916% and 97.1957%, the “Cell Viability” value ([3]; Replication number 1) was 71.9409% and 120.564% and the “Cell Viability” value ([3]; Replication number 2) was 77.7589% and 98.4599%.

`CCOCCn1cc(C(=O)Nc2ccc(-n3nc(-c4cccnc4)cc3C(F)(F)F)cn2)ccc1=O` [BI 1935] was tested, and the “Cell Viability” value ([1]; Replication number 1) was 99.959% and 99.8673%, the “Cell Viability” value ([1]; Replication number 2) was 61.8115% and 83.5341% and the “Cell Viability” value ([2]; Replication number 1) was 115.071% and 97.8008%. The “Cell Viability” value ([2]; Replication number 2) was 110.735% and 98.9796%, the “Cell Viability” value ([3]; Replication number 1) was 106.067% and 119.906% and the “Cell Viability” value ([3]; Replication number 2) was 111.838% and 96.8907%.

For `O=C(Nc1nc2cccc(-c3ccc(CN4CCS(=O)(=O)CC4)cc3)n2n1)C1CC1` [FILGOTINIB], the “Cell Viability” value ([1]; Replication number 1) was 112.727% and 81.0348%, the “Cell Viability” value ([1]; Replication number 2) was 92.6922% and 97.9922% and the “Cell Viability” value ([2]; Replication number 1) was 108.054% and 94.216%. For the same compound, the “Cell Viability” value ([2]; Replication number 2) was 115.207% and 111.119%, the “Cell Viability” value ([3]; Replication number 1) was 93.5364% and 106.162% and the “Cell Viability” value ([3]; Replication number 2) was 112.473% and 105.09%.

With `CCCS(=O)(=O)c1nc(NC2CC2)cc(-c2ccc3c(ccn3C3CC(C)(C)NC(C)(C)C3)c2)n1` the “Cell Viability” value ([1]; Replication number 1) was 90.8161% and 100.386%, the “Cell Viability” value ([1]; Replication number 2) was 72.9195% and 100.634% and the “Cell Viability” value ([2]; Replication number 1) was 108.157% and 124.037%. The “Cell Viability” value ([2]; Replication number 2) was 90.7114% and 110.084%, the “Cell Viability” value ([3]; Replication number 1) was 33.8005% and 71.7584% and the “Cell Viability” value ([3]; Replication number 2) was 41.5782% and 52.8147%.

For `CN(C)CCCOc1ccc(-c2cc(NCCCn3cccn3)nc(S(C)(=O)=O)n2)cc1`, the “Cell Viability” value ([1]; Replication number 1) was 107.413% and 76.7388%, the “Cell Viability” value ([1]; Replication number 2) was 121.884% and 89.5154% and the “Cell Viability” value ([2]; Replication number 1) was 93.735% and 87.002%. For the same compound, the “Cell Viability” value ([2]; Replication number 2) was 96.544% and 91.8258%, the “Cell Viability” value ([3]; Replication number 1) was 164.335% and 134.819% and the “Cell Viability” value ([3]; Replication number 2) was 201.31% and 140.998%.

With `FC(F)c1nc2ccccc2n1-c1nc(N2CCOCC2)nc(N2CCOCC2)n1` [ZSTK-474] the “Cell Viability” value ([1]; Replication number 1) was 70.4686% and 75.7987%, the “Cell Viability” value ([1]; Replication number 2) was 41.1971% and 64.5183% and the “Cell Viability” value ([2]; Replication number 1) was 72.4296% and 85.8537%. For the same compound, the “Cell Viability” value ([2]; Replication number 2) was 82.8986% and 74.2713%, the “Cell Viability” value ([3]; Replication number 1) was 51.8719% and 106.162% and the “Cell Viability” value ([3]; Replication number 2) was 61.9887% and 87.8149%.

In the case of `C=CC(=O)Nc1ccc2[nH]c(=O)n(C3CCN(Cc4ccc(-c5nc6cc[nH]c(=O)c6cc5-c5ccccc5)cc4)CC3)c2c1` [Borussertib], the “Cell Viability” value ([1]; Replication number 1) is reported as 27.7912% and 48.9559%, the “Cell Viability” value ([1]; Replication number 2) is reported as 42.376% and 51.9429% and the “Cell Viability” value ([2]; Replication number 1) is reported as 72.0097% and 96.5806%. For the same compound, the “Cell Viability” value ([2]; Replication number 2) was 66.1245% and 78.518%, the “Cell Viability” value ([3]; Replication number 1) was 53.8202% and 93.0364% and the “Cell Viability” value ([3]; Replication number 2) was 55.5643% and 106.199%.

In the case of `CC(=O)C1=C(C)N(c2cccc(C(F)(F)F)c2)C(=O)N[C@@H]1c1ccc(C#N)nc1` [BAY-678], the “Cell Viability” value ([1]; Replication number 1) is reported as 154.648% and 117.069%, the “Cell Viability” value ([1]; Replication number 2) is reported as 95.0691% and 89.9598% and the “Cell Viability” value ([2]; Replication number 1) is reported as 123.826% and 98.3829%. For the same compound, the “Cell Viability” value ([2]; Replication number 2) was 102.879% and 115.306%, the “Cell Viability” value ([3]; Replication number 1) was 116.42% and 104.215% and the “Cell Viability” value ([3]; Replication number 2) was 86.788% and 60.6455%.

`CCC(=O)N[C@H]1CC[C@@H](C(=O)N(C)c2ccc(-c3nc4ccccc4o3)cc2)C1` [BI 99179] was tested, and the “Cell Viability” value ([1]; Replication number 1) was 70.0522% and 46.8277%, the “Cell Viability” value ([1]; Replication number 2) was 52.7511% and 35.3414% and the “Cell Viability” value ([2]; Replication number 1) was 140.434% and 105.951%. The “Cell Viability” value ([2]; Replication number 2) was 114.409% and 97.9592%, the “Cell Viability” value ([3]; Replication number 1) was 21.7258% and 60.1874% and the “Cell Viability” value ([3]; Replication number 2) was 30.1767% and 66.0942%.

For `COc1nc2ccc([C@@](O)(c3ccccc3)C3CCN(C(C)=O)CC3)cc2c(Cl)c1Cc1ccc(-n2cccn2)cc1` [JNJ-54119936], the “Cell Viability” value ([1]; Replication number 1) was 195.654% and 100.967%, the “Cell Viability” value ([1]; Replication number 2) was 202.641% and 113.341% and the “Cell Viability” value ([2]; Replication number 1) was 91.3508% and 107.676%. For the same compound, the “Cell Viability” value ([2]; Replication number 2) was 118.142% and 99.7424%, the “Cell Viability” value ([3]; Replication number 1) was 95.4238% and 127.913% and the “Cell Viability” value ([3]; Replication number 2) was 99.5018% and 98.8422%.

In the case of `CN(C)C(=O)/C(C#N)=C/c1ccc(-c2nc3cnc4[nH]ccc4c3n2C2CCCCC2)o1`, the “Cell Viability” value ([1]; Replication number 1) is reported as 104.012% and 103.69%, the “Cell Viability” value ([1]; Replication number 2) is reported as 101.367% and 106.659% and the “Cell Viability” value ([2]; Replication number 1) is reported as 101.13% and 96.3421%. The “Cell Viability” value ([2]; Replication number 2) was 107.991% and 97.4755%, the “Cell Viability” value ([3]; Replication number 1) was 174.281% and 154.216% and the “Cell Viability” value ([3]; Replication number 2) was 123.709% and 122.376%.

`CNC(=O)Nc1ccc(-c2nc(N3CC4CCC(C3)O4)c3cnn(C4CCC5(CC4)OCCO5)c3n2)cc1` was tested, and the “Cell Viability” value ([1]; Replication number 1) was 16.963% and 8.004%, the “Cell Viability” value ([1]; Replication number 2) was 13.8845% and 13.3086% and the “Cell Viability” value ([2]; Replication number 1) was 32.2778% and 51.8467%. For the same compound, the “Cell Viability” value ([2]; Replication number 2) was 33.537% and 47.4991%, the “Cell Viability” value ([3]; Replication number 1) was 5.405% and 12.6193% and the “Cell Viability” value ([3]; Replication number 2) was 4.979% and 10.7558%.

In the case of `Cc1cc2c(cc1N1C(=O)c3cccc4c(CCCO)ccc(c34)C1=O)n(C)c(=O)n2C`, the “Cell Viability” value ([1]; Replication number 1) is reported as 57.3322% and 75.8114%, the “Cell Viability” value ([1]; Replication number 2) is reported as 118.076% and 83.8137% and the “Cell Viability” value ([2]; Replication number 1) is reported as 93.3541% and 102.286%. The “Cell Viability” value ([2]; Replication number 2) was 93.8629% and 86.4558%, the “Cell Viability” value ([3]; Replication number 1) was 68.0185% and 75.3826% and the “Cell Viability” value ([3]; Replication number 2) was 71.5666% and 43.0165%.

With `Cn1c(=O)[nH]c2cc(N3C(=O)c4cccc5c(CCCO)ccc(c45)C3=O)ccc21` the “Cell Viability” value ([1]; Replication number 1) was 172.196% and 101.777%, the “Cell Viability” value ([1]; Replication number 2) was 101.158% and 94.3617% and the “Cell Viability” value ([2]; Replication number 1) was 119.202% and 111.104%. The “Cell Viability” value ([2]; Replication number 2) was 123.504% and 100.955%, the “Cell Viability” value ([3]; Replication number 1) was 78.0892% and 58.7114% and the “Cell Viability” value ([3]; Replication number 2) was 114.692% and 105.151%.

For `CN1CCN(Cc2cc(NC(=O)c3ccc4c(c3)CN(c3ccccc3)CC4)cc(C(F)(F)F)c2)CC1`, the “Cell Viability” value ([1]; Replication number 1) was 73.1959% and 82.4072%, the “Cell Viability” value ([1]; Replication number 2) was 164.971% and 111.856% and the “Cell Viability” value ([2]; Replication number 1) was 111.963% and 96.9088%. The “Cell Viability” value ([2]; Replication number 2) was 113.098% and 109.943%, the “Cell Viability” value ([3]; Replication number 1) was 104.972% and 109.917% and the “Cell Viability” value ([3]; Replication number 2) was 87.5694% and 92.1973%.

`COc1cc2c(cc1-c1c(C)noc1C)ncc1[nH]c(=O)n([C@H](C)c3ccccn3)c12` was tested, and the “Cell Viability” value ([1]; Replication number 1) was 51.0073% and 39.6445%, the “Cell Viability” value ([1]; Replication number 2) was 53.9016% and 48.1786% and the “Cell Viability” value ([2]; Replication number 1) was 88.6726% and 67.015%. The “Cell Viability” value ([2]; Replication number 2) was 110.558% and 99.8807%, the “Cell Viability” value ([3]; Replication number 1) was 37.8038% and 58.2282% and the “Cell Viability” value ([3]; Replication number 2) was 43.3272% and 66.9145%.

With `Cn1cc(Cl)c2c(Oc3c(F)cc(Nc4cc(Cl)nc(N)n4)cc3F)ccnc21` [BAY-4900] the “Cell Viability” value ([1]; Replication number 1) was 73.6043% and 111.604%, the “Cell Viability” value ([1]; Replication number 2) was 79.5869% and 90.6027% and the “Cell Viability” value ([2]; Replication number 1) was 120.472% and 95.4893%. For the same compound, the “Cell Viability” value ([2]; Replication number 2) was 100.602% and 97.8926%, the “Cell Viability” value ([3]; Replication number 1) was 133.628% and 127.773% and the “Cell Viability” value ([3]; Replication number 2) was 114.004% and 114.608%.

With `CS(=O)(=O)N1CCN(Cc2cc3nc(-c4cccc5[nH]ncc45)nc(N4CCOCC4)c3s2)CC1` [PICTILISIB] the “Cell Viability” value ([1]; Replication number 1) was 49.7053% and 32.4139%, the “Cell Viability” value ([1]; Replication number 2) was 55.1776% and 34.8237% and the “Cell Viability” value ([2]; Replication number 1) was 58.3035% and 68.0139%. The “Cell Viability” value ([2]; Replication number 2) was 64.7873% and 89.8165%, the “Cell Viability” value ([3]; Replication number 1) was 32.227% and 73.4455% and the “Cell Viability” value ([3]; Replication number 2) was 23.961% and 57.7892%.

With `COc1cc(OC)cc(-c2noc(N3CCN(C)C4(CCN(c5ccccc5)CC4)C3)n2)c1` the “Cell Viability” value ([1]; Replication number 1) was 101.833% and 98.7635%, the “Cell Viability” value ([1]; Replication number 2) was 122.499% and 95.7871% and the “Cell Viability” value ([2]; Replication number 1) was 113.13% and 104.05%. The “Cell Viability” value ([2]; Replication number 2) was 103.365% and 96.1217%, the “Cell Viability” value ([3]; Replication number 1) was 202.541% and 143.275% and the “Cell Viability” value ([3]; Replication number 2) was 168.695% and 116.861%.
